Test results: PMC9929232, “On-demand male contraception via acute inhibition of soluble adenylyl cyclase” (Nature Communications, 2023)
Several values for one entry are separate records, joined by “and”; a condition that tells them apart may be missing. Equal entries are not always repeated.

How the values were obtained:
epididymal mouse sperm [1] = experiment: Ex vivo motility (CASA) of epididymal sperm from inhibitor-treated male mice; assay type: in vivo
Description: Sperm movements of 10 fields of at least 200 sperm were examined using computer-assisted sperm analysis (CASA) via Hamilton–Thorne digital image analyzer (IVOS II, Hamilton Thorne Research, Beverly, MA) with the following parameters: 30 frames, frame rate: 60 Hz, cell size: 30–170 μm^2. Ejaculated uterine mouse sperm were recorded without additional dilution. Sperm were considered motile when presenting STR ≥80% and VAP ≥50 μm/s and hyperactivated when presenting VCL ≥270 μm/s, LIN < 50%, and ALH ≥7 μm. Track´s color code: motile (green), progressive (turquoise), hyperactivated (purple), slow (pink), static (red), not counted due to late entry (yellow).

epididymal mouse sperm [2] = experiment: Tyrosine phosphorylation (pY) Western blot of sperm from injected mice; details: for capacitation-induced pY pattern: 50 mg/kg i.p., 1 hour
Description: (§1) For capacitation, sperm were incubated for 90 min in TYH containing 3 mg/ml BSA and 25 mM NaHCO3 in a 37 °C incubator. To control for the consequences of dilution during isolation of epididymal mouse sperm for ex vivo assays, we assessed the ability of bicarbonate to induce a prototypical pattern of tyrosine phosphorylation (pY) which is a widely used molecular hallmark of capacitation[53]. […] For experiments studying sperm from injected mice, ‘swim out’ was performed in 200 μl TYH, which corresponded to a 1:10 dilution from epididymis (20 μg cauda in 200 μl buffer). Capacitation-induced changes were assessed by adding 50 µl of ‘swim out’ sperm to increasing volumes of capacitating TYH buffer.
Mouse sperm from vehicle- or inhibitor-injected mice were isolated 1 hour post injection from male mice injected (i.p.) with 150 µl of solution containing sAC inhibitor or vehicle. ‘Swim out’ sperm were diluted 1:1 to 1:100 in capacitating TYH media. As control, sperm from vehicle-injected mice were diluted 1:100 in non-capacitating and capacitating TYH buffer. The samples were incubated for 90 min, washed with 1 ml PBS and sedimented by centrifugation at 2000 × g for 3 min. The sedimented sperm were resuspended in 15 μl 2× Laemmli sample buffer, heated for 5 min at 95 °C, supplemented with 8 µl β-mercaptoethanol and heated again for 5 min at 95 °C. For Western blot analysis, proteins were transferred onto PVDF membranes (Thermo Scientific), probed with anti-phosphotyrosine (1:1000, clone 4G10, Merck Millipore) and anti-mouse IgG (1:10,000, Cell Signaling Technology) antibodies, and analyzed using a chemiluminescence detection system. Image lab (Bio-Rad) was used for densitometric analysis of western blots.

mouse sperm [3] = experiment: Acrosome reaction assay, mouse sperm, zona pellucidae-evoked; assay type: cell-based; details: Fig. 2g replicates, 5 μM TDI-10229 or 10 nM TDI-11861
Description: Zonae pellucidae were isolated from female mice superovulated by intraperitoneal injection of 10 I.U. […] 3 days before the experiment. 14 h before oocyte isolation, mice were injected with 10 I.U. pregnant mare’s serum gonadotropin. Mice were sacrificed by cervical dislocation and oviducts were dissected. Cumulus-enclosed oocytes were separated from the oviducts and placed into TYH buffer containing 300 μg/ml hyaluronidase. After 15 min, cumulus-free oocytes were transferred into fresh buffer and washed twice. Zonae pellucidae and oocytes were separated by shear forces generated by expulsion from […] pasteur pipettes. Zona pellucidae were counted, transferred into fresh buffer, and heat-solubilized by incubation for 10 min at 65 °C.
Acrosome reaction was induced by incubating mouse sperm with 50 mouse solubilized zonae pellucidae for 15 min at 37 °C. Human sperm were incubated with 10 μM progesterone for 30 min at 37 °C. […] Samples were air-dried on microscope slides and fixed for 30 minutes in 100% ethanol at room temperature (RT). For acrosome staining, mouse and human sperm were incubated for 30 min in the dark with 5 μg/ml PNA-FITC or 5 μg/ml PSA-FITC, respectively, and counterstained with 2 μg/ml DAPI. After curing, slides were analyzed using a Zeiss LSM 880 Laser Scanning Confocal Microscope; images were captured with two photomultiplier and one Gallium Arsenide Phosphide detector using ZEN Imaging software. For each condition, at least 600 cells were analyzed using ImageJ 1.52.

human sperm = experiment: cAMP generation in human sperm in vitro, incl. wash-out by dilution; assay type: cell-based; details: 30 minutes
Description: Samples of human semen were obtained from healthy volunteers with their prior written consent following a protocol approved by Weill Cornell Medicine’s Institutional Review Board (IRB 21-03023495). […] Semen was incubated for 30 min in a 37 °C incubator to liquefy. […] The tubes were incubated at a tilted angle of 45° at 37 °C for 60 min. Motile sperm were allowed to swim up into the HTF layer; immotile sperm and other cells or tissue debris remain in the ejaculate fraction. Up to 3 ml of the HTF layer was transferred to a fresh tube and washed twice in HTF by centrifugation (700 × g, 20 min). The supernatant was removed after the last centrifugation step and the sperm pellet was resuspended in 1 ml HTF. The purity and vitality of each sample was assessed via light microscopy. Sperm cell numbers were determined using a hemocytometer and adjusted to a concentration of 1 × 10^7 cells/ml.

mouse sperm [4] = experiment: cAMP generation in mouse sperm in vitro, incl. wash-out by dilution; details: 12 minutes
Description: For capacitation, sperm were incubated for 90 min in TYH containing 3 mg/ml BSA and 25 mM NaHCO3 in a 37 °C incubator. To control for the consequences of dilution during isolation of epididymal mouse sperm for ex vivo assays, we assessed the ability of bicarbonate to induce a prototypical pattern of tyrosine phosphorylation (pY) which is a widely used molecular hallmark of capacitation[53]. Bicarbonate-induced pY is known to be sAC dependent in vitro[20],[22],[35]. For experiments studying sperm from injected mice, ‘swim out’ was performed in 200 μl TYH, which corresponded to a 1:10 dilution from epididymis (20 μg cauda in 200 μl buffer). Capacitation-induced changes were assessed by adding 50 µl of ‘swim out’ sperm to increasing volumes of capacitating TYH buffer.
cAMP generation was measured in mouse and human sperm. […] For human sperm, aliquots of 2 × 10^6 cells were incubated for 30 min in the presence or absence of sAC inhibitor in non-capacitating or capacitating HTF buffer. In both cases, 0.1% DMSO was used as vehicle control.
After 5 min, 150 µl of sperm/inhibitor mix was diluted into 1.35 ml non-capacitating or capacitating media with no inhibitor. […] Sperm lysates were centrifuged at 2000 × g for 3 min and the cAMP in the supernatant was acetylated and quantified using the Direct cAMP ELISA kit (Enzo).

epididymal mouse sperm [5] = experiment: Ex vivo cAMP generation in epididymal sperm from inhibitor-treated male mice (oral or i.p.)
Description: as §1
Intracellular cAMP levels were quantified using the Direct cAMP ELISA kit (Enzo) as above.

[6] = sheet Fig. 2c replicates, 5 μM TDI-10229 or 10 nM TDI-11861 present
[7] = sheet Fig. 2d replicates, 5 min preincubation in 5 μM TDI-10229 or 10 nM TDI-11861, diluted 1:100 into inhibitor-free media
[8] = sheet Fig. 2a replicates, 5 μM TDI-10229 or 10 nM TDI-11861 present
[9] = sheet Fig. 2b replicates, 5 min preincubation in 5 μM TDI-10229 or 10 nM TDI-11861, diluted 1:100 into inhibitor-free media

## Cc1c(Cc2ccccc2)c(-c2cc(Cl)nc(N)n2)nn1C [TDI-10229, reference compound]
Epididymal mouse sperm [1]; 50 mg/kg oral
  motility of epididymal sperm diluted ex vivo: motile and indistinguishable from sperm from vehicle-treated mice
Epididymal mouse sperm [1]; Fig. 3b replicates, 50 mg/kg oral gavage, 1 hour, diluted 1:100 in inhibitor-free non-capacitating media, CASA, 50 mg/kg
  motility (%): 34.7% and 36.8% and 35.1% and 36.4% and 29.7% and 32.4% and 30.6% and 26% and 32% and 33.4% and 29.4%
Epididymal mouse sperm [1]; Fig. 3d, individual replicates
  motility (%): 19.9% and 28.3% and 25% and 29.5% and 30.2% and 35.4% and 40.7% and 41.4% and 42.3%
Epididymal mouse sperm [2]; diluted 25 fold
  capacitation-induced pY pattern: restored
Epididymal mouse sperm [2]; swim out sperm mixed with equal volume capacitation media
  capacitation-induced pY pattern: blocked
Epididymal mouse sperm [2]; Fig. S1f, 1:1 capacitating media
  normalized pY: 1.44 and 0.9739 and 0.9492 and 1.269 and 0.7377 and 0.8308 and 0.9909 and 0.9583
Epididymal mouse sperm [2]; Fig. S1f, 1:5 capacitating media
  normalized pY: 1.231 and 0.8896 and 0.8967 and 1.293 and 1.015 and 0.7938 and 1.073 and 0.7598
Epididymal mouse sperm [2]; Fig. S1f, 1:10 capacitating media
  normalized pY: 1.238 and 0.8061 and 0.8834 and 1.18 and 1.244 and 0.7753 and 1.106 and 0.8286
Epididymal mouse sperm [2]; Fig. S1d, 1:1 capacitating media
  normalized pY: 1.323 and 2.451 and 1.717 and 1.956
Epididymal mouse sperm [2]; Fig. S1d, 1:5 capacitating media
  normalized pY: 1.566 and 2.38 and 1.568 and 1.6103
Epididymal mouse sperm [2]; Fig. S1d, 1:10 capacitating media
  normalized pY: 1.95 and 2.076 and 2.342 and 1.601
Epididymal mouse sperm [2]; Fig. S1d, 1:25 capacitating media
  normalized pY: 1.653 and 2.642 and 2.388
Epididymal mouse sperm [2]; Fig. S1d, 1:50 capacitating media
  normalized pY: 1.946 and 2.557 and 2.122 and 1.827
Epididymal mouse sperm [2]; Fig. S1d, 1:100 capacitating media
  normalized pY: 1.953 and 2.689 and 1.737 and 1.751
Mouse sperm [3]; 5 mM db-cAMP/500 μM IBMX
  Acrosome reacted (%), basal + db-cAMP/IBMX: 27.72% and 28.24% and 29.05% and 27.83% and 24.06%
Mouse sperm [3]; 50 heat-solubilized zona pellucidae
  Acrosome reacted (%), ZP: 22.4% and 26.2% and 28.2% and 15.6% and 20%
Mouse sperm [3]; 90 min capacitating media
  Acrosome reacted (%), basal: 20.3% and 33.8% and 26.7% and 16.5% and 28%
Mouse sperm [3]; zona pellucidae, 5 mM db-cAMP/500 μM IBMX
  Acrosome reacted (%), ZP + db-cAMP/IBMX: 32% and 38.6% and 36.8% and 38% and 41.8%
Human sperm; [6]
  cAMP, capacitation media: 0.877 pmol/10^6 sperm and 0.67 pmol/10^6 sperm and 0.652 pmol/10^6 sperm and 0.78 pmol/10^6 sperm and 1.141 pmol/10^6 sperm and 0.8484 pmol/10^6 sperm and 1.0045 pmol/10^6 sperm
  cAMP, non-capacitation media: 0.136 pmol/10^6 sperm and 0.12 pmol/10^6 sperm and 0.2 pmol/10^6 sperm and 0.75 pmol/10^6 sperm and 0.55 pmol/10^6 sperm and 0.7798 pmol/10^6 sperm and 0.493 pmol/10^6 sperm
Human sperm; [7]
  cAMP, capacitation media: 1.0484 pmol/10^6 sperm and 0.9036 pmol/10^6 sperm and 1.37 pmol/10^6 sperm and 1.1895 pmol/10^6 sperm and 1.866 pmol/10^6 sperm
  cAMP, non-capacitation media: 0.7172 pmol/10^6 sperm and 0.3596 pmol/10^6 sperm and 1.05 pmol/10^6 sperm and 0.7885 pmol/10^6 sperm and 1.206 pmol/10^6 sperm
Mouse sperm [4]; [8]
  cAMP, capacitation media: 0.708 pmol/10^6 sperm and 0.223 pmol/10^6 sperm and 0.8377 pmol/10^6 sperm and 0.328 pmol/10^6 sperm and 0.317 pmol/10^6 sperm and 0.164 pmol/10^6 sperm and 0.248 pmol/10^6 sperm and 0.209 pmol/10^6 sperm and 0.814 pmol/10^6 sperm and 0.028 pmol/10^6 sperm
  cAMP, non-capacitation media: 0.791 pmol/10^6 sperm and 0.172 pmol/10^6 sperm and 0.69 pmol/10^6 sperm and 0.464 pmol/10^6 sperm and 0.354 pmol/10^6 sperm and 0.286 pmol/10^6 sperm and 0.57 pmol/10^6 sperm and 0.578 pmol/10^6 sperm and 1.32 pmol/10^6 sperm and 0.473 pmol/10^6 sperm
Mouse sperm [4]; [9]
  cAMP, capacitation media: 0.7514 pmol/10^6 sperm and 0.838 pmol/10^6 sperm and 0.907 pmol/10^6 sperm and 0.4366 pmol/10^6 sperm and 0.08556 pmol/10^6 sperm and 0.441 pmol/10^6 sperm and 0.751 pmol/10^6 sperm and 1.195 pmol/10^6 sperm
  cAMP, non-capacitation media: 0.7446 pmol/10^6 sperm and 0.94 pmol/10^6 sperm and 1.147 pmol/10^6 sperm and 0.8426 pmol/10^6 sperm and 0.7363 pmol/10^6 sperm and 0.601 pmol/10^6 sperm and 0.752 pmol/10^6 sperm and 1.525 pmol/10^6 sperm
Epididymal mouse sperm [5]; 50 mg/kg i.p.
  bicarbonate-induced cAMP response, sperm directly isolated: prevented bicarbonate-induced increase in cAMP
Epididymal mouse sperm [5]; 50 mg/kg oral, 1 hour, cauda sperm
  bicarbonate-induced cAMP response, sperm measured directly: no bicarbonate-induced increase in cAMP
Epididymal mouse sperm [5]; Fig. 3a replicates, 50 mg/kg oral gavage, 100-fold dilution into inhibitor-free media, capacitating relative to non-capacitated, 50 mg/kg
  normalized cAMP, diluted: 2.085 and 1.745 and 2.432 and 2.093 and 1.3062 and 3.591 and 2.931 and 3.583
Epididymal mouse sperm [5]; Fig. 3a replicates, 50 mg/kg oral gavage, capacitating relative to non-capacitated sperm of same mouse, 12 minutes, 50 mg/kg
  normalized cAMP, non-diluted: 1.449 and 1.743 and 0.3 and 0.7791 and 0.9239 and 0.4534 and 0.1485 and 0.05415
Epididymal mouse sperm [5]; Fig. 3c replicates, 50 mg/kg i.p., 100-fold dilution into inhibitor-free media, capacitating relative to non-capacitated, 50 mg/kg
  normalize cAMP, diluted: 1.94 and 1.936 and 3.937 and 2.155 and 1.983 and 3.104 and 1.124 and 4 and 3.176 and 2.922 and 1.239
Epididymal mouse sperm [5]; Fig. 3c replicates, 50 mg/kg i.p., capacitating relative to non-capacitated sperm of same mouse, 12 minutes, 50 mg/kg
  normalize cAMP, non-diluted: 0.2801 and 0.5834 and 0.6474 and 0.2247 and 1.279 and 0.9423 and 1.0897 and 0.542 and 0.3506 and 1.1072 and 1.1267
